These results are taken from US8329703B2, “Pyrazole compounds” (XTL Biopharmaceuticals Ltd., priority 2005, dated 2012).

For series [1], the system named is Huh-Luc-Neo cells. The series can be described thus: Cell Titer-Glo Cell Viability Assay. It counts as cell-based, human. Conditions: for Toxicity % Inhibition at 50 μM (2 doses): inhibition of cell viability at 50 μM, conditions identical to HCV Replicon RNA Assay; for Toxicity % Inhibition at 100 μM (1 dose): inhibition of cell viability at 100 μM, conditions identical to HCV Replicon Luciferase Assay (48 h). The method, then:
(§1) Day 2, Reagent Preparation and Luciferase Assay: The Bright-Glo Luciferase Assay Buffer (Promega) is thawed and equilibrated to room temperature prior to use. The lyophilized Bright-Glo Luciferase Assay Substrate is equilibrated to room temperature prior to use. 10 ml of Bright-Glo Luciferase Assay Buffer is transferred to 1 vial of Bright-Glo Luciferase Assay Substrate bottle and mixed by gently with a Vortex. 100 ul of Bright-Glo Luciferase Assay reagent (Bright-Glo Luciferase Assay Buffer+Bright-Glo Luciferase Assay Substrate Mixture) is added to each well. The well contents are mixed for 5 min. on an orbital shaker at room temperature to induce cell lysis and the luminescence is then measured using a luminometer. The data is analyzed and IC50s are determined using GraphPad Prism 4 software. Hits validated in the Replicon Luciferase assay have IC50s<8.0 μM and show <30% inhibition of Cell Viability at a compound concentration of 100 μM (Cell Titer Glow Assay, cell viability assay conditions identical to HCV Replicon Luciferase Assay conditions).
(§2) Day 3, Quantitative PCR Based Measurement of HCV RNA (Taqman Assay): Quantitative PCR analysis to measure HCV RNA expression from cDNA synthesized on Day 2 is performed using the ABI 9700 HT Sequence Detection System (Applied Biosystems) as previously described (Lohman et al, Science 285, 110-113, 1999). The data is analyzed and IC50s are determined using GraphPad Prism 4 software. Hits validated in the Replicon RNA Assay have IC50s<8.0 μM and show <30% inhibition of Cell Viability at a compound concentration of 50 μM (Cell Titer Glow Assay, cell viability assay conditions identical to HCV Replicon RNA Assay conditions).
Day 0, Cell Seeding and Compound Treatment: Huh-Luc-Neo Cells are seeded at 25,000/well in an opaque-walled 96 plate with Growth Medium (DMEM phenol red free+PS+2 mM glutamine; 100 ul/well).
Day 2, Reagent Preparation and Assay: The CellTiter-Glo Buffer is thawed and equilibrated to room temperature prior to use. The lyophilized CellTiter-Glo Substrate is equilibrated to room temperature prior to use. 10 ml of CellTiter-Glo Buffer is transferred to 1 vial of CellTiter-Glo Substrate and mixed by gently with a Vortex. 100 μl of CellTiter-Glo Assay reagent (CellTiter-Glo Buffer+CellTiter-Glo Substrate Mixture) is added to each well. The well contents are mixed for 5 min. on an orbital shaker at room temperature to induce cell lysis and the luminescence is then measured using a luminometer.
Background: Cellular ATP, detected with luciferase, serves as a proxy for viable cell number.

In series [2] the test system is HCV RNA (HCV Replicon) in Huh-Luc-Neo cells. Put plainly: HCV Replicon RNA Assay (Taqman quantitative PCR). It counts as cell-based. The settings on record: Hepatitis C virus, 48 h, 2 compound treatments over 48 h, no unit printed in table (b307 gives IC50s in μM). On the procedure:
(§3) The identification of inhibitors of HCV replication and/or proliferation has been facilitated by the development of a cell based system to study HCV replication and assay for HCV inhibitors. Inhibition of HCV replication may be performed using the HCV Replicon Assay developed in the laboratories of Bartenschlager (Lohman et al, Science 285, 110-113, 1999) and Rice (Blight et al, Science 290, 1972-1974, 2000). The assay is performed using the Huh-Luc-Neo cell line (Lohman et al, Science 285, 110-113, 1999). Huh-Luc-Neo cells are a human hepatoma cell line (Huh-7) stably expressing a bi-cistronic subgenomic replicon containing the HCV IRES in which the […] of HCV had been deleted and replaced by a construct containing sequences coding for the firefly luciferase reporter gene, the neomycin selectable marker and the EMCV IRES to direct expression of a truncated HCV genome expressing the […] NS3, NS4A, NS4B, NS5A, and NS5B. HCV targets through which inhibitors could act to inhibit replication include the NS3 protease, the helicase/ATPase, NS5A, the NS5B-RNA dependent RNA polymerase, and the HCV IRES.
(§4) Expression of HCV IRES driven luciferase reporter activity and HCV RNA is measured to obtain indirect and direct measures of replication of HCV RNA respectively. Inhibitors of HCV replication and/or proliferation are determined by initially identifying molecules that inhibit expression of the HCV IRES driven luciferase reporter in this HCV Replicon Luciferase Assay. Cell viability assays and control cell based luciferase assays are then run on hits identified in the HCV Replicon Luciferase Assay to eliminate cytoxic compounds and non-specific compounds which act by inhibiting the luciferase enzyme.
Day 0, Cell Seeding and Compound Treatment: Huh-Luc-Neo Cells are seeded at 25,000/well in an opaque-walled 96 plate with Growth Medium (DMEM phenol red free+PS+2 mM glutamine; 100 μl/well). The compounds to be tested are added to the experimental wells (10 μl/well at 10× assay concentration) and the cells are then incubated (5% CO2, 37° C.).
Day 1, Media Change and Compound Treatment: 24 hours after the initial compound treatment the cell culture media is aspirated from the wells and fresh Growth Medium is added (DMEM phenol red free+PS+2 mM glutamine; 100 μl/well). The compounds to be tested are then added to the appropriate experimental wells (10 μl/well at 10× assay concentration) and the cells are then incubated (5% CO2, 37° C.) for an additional 24 hrs.
Day 2, RNA Isolation and cDNA Synthesis: The cells are washed with 1× Phosphate Buffered Saline (PBS) once.
as §2
In general terms: In antiviral work, replicon cells carry a viral genome segment that copies itself.

Series [3] has as its system HCV Replicon (HCV IRES driven luciferase reporter) in Huh-Luc-Neo cells. Put plainly: HCV Replicon Luciferase Assay. It counts as cell-based. Conditions: Hepatitis C virus, 48 h, read-out: Luciferase IC50. The method, then: as §3, §4
Day 0, Cell Seeding and Compound Treatment: Huh-Luc-Neo Cells are seeded at 25,000/well in an opaque-walled 96 plate with Growth Medium (DMEM phenol red free+PS+2 mM glutamine; 100 μl/well). The compounds to be tested are added to the experimental wells (10 μl/well at 10× assay concentration) and the cells are then incubated (5% CO2, 37° C.) for 48 h.
as §1

Where [4] appears, read: Huh-Luc-Neo cells, no unit printed in table (b301 gives IC50s in μM).

Read-outs that look alike come from different tables or passages of the source.

Regarding `Cn1nc(-c2ccccc2O)c(C#CCCCC#N)c1-c1ccccc1` [VQ_30716], the “Toxicity % Inhibition at 50 μM (2 doses)” value in series [1] worked out at 6.8%. The “Toxicity % Inhibition at 100 μM (1 dose)” value in series [1] is on record as 13.7%. In addition, the IC50 came out at 0.11 µM in series [2] and 3.96 µM in series [3] (setting [4]).

Consider `Cn1cc(C#CC(C)(C)C)c(-c2cc([N+](=O)[O-])ccc2OCc2c(F)cccc2F)n1` [VQ_33518], for which, in series [1], the “Toxicity % Inhibition at 50 μM (2 doses)” value amounted to 22.8%. The “Toxicity % Inhibition at 100 μM (1 dose)” value in series [1] amounted to 40.4%. For the same molecule, the IC50 in series [2] turned out to be 0.42 µM; in series [3] (setting [4]), 1.85 µM.

As to `Cn1cc(CCC(C)(C)C)c(-c2cc(NC(=O)c3cccc(Cl)c3F)ccc2O)n1` [VQ_34072], in series [1], the “Toxicity % Inhibition at 50 μM (2 doses)” value amounted to 6.2% and the “Toxicity % Inhibition at 100 μM (1 dose)” value is listed as 4.2%. The IC50 in series [2] amounted to 1.09 µM. Moreover, the concentration for half-maximal inhibition (IC50) in series [3] (setting [4]) turned out to be 2.87 µM.

Take `COc1ccc(O)c(-c2nn(C)cc2C#CC(C)(C)C)c1` [VQ_34145]: in series [1], the “Toxicity % Inhibition at 50 μM (2 doses)” value was found to be 13.1% and the “Toxicity % Inhibition at 100 μM (1 dose)” value stood at 19.8%. The molecule further came in with a half-maximal inhibitory concentration (IC50) in series [2] of 0.82 µM. Moreover, the IC50 in series [3] (setting [4]) was determined as 1.87 µM.

On to `Cn1nc(-c2cc(Br)ccc2O)c(C#CC(C)(C)C)c1C#CCCCC#N` [VQ_34298], for which, in series [1], the “Toxicity % Inhibition at 50 μM (2 doses)” value was 23.9%. Moreover, the “Toxicity % Inhibition at 100 μM (1 dose)” value in series [1] came out at 18.3%. Further, the IC50 in series [2] was determined as 3.86 µM; in series [3] (setting [4]) it was 5.5 µM.

For the molecule `Cn1cc(C#CC(C)(C)C)c(-c2cc(C#Cc3ccc(Cl)cc3)ccc2O)n1` [VQ_34394], in series [1], the “Toxicity % Inhibition at 50 μM (2 doses)” value amounted to 24.5% and the “Toxicity % Inhibition at 100 μM (1 dose)” value is 31.8%. The 50% inhibitory concentration (IC50) in series [2] worked out at 1.07 µM. Moreover, in series [3] (setting [4]), the IC50 came to 4.8 µM.

In the case of `Cn1cc(C#CC(C)(C)C)c(-c2cc(C#CCC3CCCCC3)ccc2O)n1` [VQ_34395], the “Toxicity % Inhibition at 50 μM (2 doses)” value in series [1] was found to be 23.6%. Also, the “Toxicity % Inhibition at 100 μM (1 dose)” value in series [1] was found to be 45.4%. Also, the figures for the 50% inhibitory concentration (IC50) in series [2] and in series [3] (setting [4]) were 0.68 µM and 3.7 µM, respectively.

In the case of `Cn1cc(C#CC2CC2)c(-c2cc(Br)ccc2O)n1` [VQ_34432], the “Toxicity % Inhibition at 50 μM (2 doses)” value in series [1] amounted to 8.2%. The “Toxicity % Inhibition at 100 μM (1 dose)” value in series [1] is reported as 45.5%. Also, the IC50 in series [2] amounted to 0.82 µM; in series [3] (setting [4]), 11.5 µM.

With `Cn1cc(C#CC(C)(C)C)c(-c2cc(-c3cccc(Cl)c3)ccc2O)n1` [VQ_35543], in series [1], the “Toxicity % Inhibition at 50 μM (2 doses)” value amounted to 8.2% and the “Toxicity % Inhibition at 100 μM (1 dose)” value was 25.3%. In series [2], this molecule registered an IC50 of 2.16 µM. Besides, the half-inhibitory concentration (IC50) in series [3] (setting [4]) came to 10.1 µM.

For the molecule `Cn1cc(C#CC(C)(C)C)c(-c2cc(NC(=O)c3ccc(Cl)c(Cl)c3)ccc2O)n1` [VQ_35556], in series [1], the “Toxicity % Inhibition at 50 μM (2 doses)” value worked out at 13.7% and the “Toxicity % Inhibition at 100 μM (1 dose)” value is given as 28.8%. The midpoint of inhibition in series [2], the IC50, lay at 0.99 µM. For the same molecule, the 50% inhibitory concentration (IC50) in series [3] (setting [4]) came to 9.3 µM.

As for `Cn1cc(C#CC(C)(C)C)c(-c2cc(NC(=O)c3cccc(Cl)c3)ccc2O)n1` [VQ_35559], in series [1], the “Toxicity % Inhibition at 50 μM (2 doses)” value was 15.8% and the “Toxicity % Inhibition at 100 μM (1 dose)” value came out at 24.2%. The same molecule yielded a concentration for half-maximal inhibition (IC50) in series [2] of 1.98 µM. Further, in series [3] (setting [4]), the IC50 worked out at 9.5 µM.

Regarding `CC(=O)c1ccc(N2CCN(C(=O)c3c(C#CC(C)(C)C)c(-c4cc(Cl)ccc4O)nn3C)CC2)cc1` [VQ_36649], in series [1], the “Toxicity % Inhibition at 50 μM (2 doses)” value is on record as 12.1% and the “Toxicity % Inhibition at 100 μM (1 dose)” value is 7.3%. In series [2], this molecule showed an IC50 of 0.4 µM. The IC50 in series [3] (setting [4]) amounted to 9.7 µM.

`C=CCNc1ccc([N+](=O)[O-])cc1-c1nn(C)cc1C#CC(C)(C)C` [VQ_36658]: in series [1], the “Toxicity % Inhibition at 50 μM (2 doses)” value is 38.8% and the “Toxicity % Inhibition at 100 μM (1 dose)” value was determined as 21.8%. Further, the IC50 in series [2] came out at 0.4 µM. Moreover, the half-maximal inhibitory concentration (IC50) in series [3] (setting [4]) was found to be 0.04 µM.

`Cn1cc(C#CC(C)(C)C)c(-c2cc([N+](=O)[O-])ccc2NCc2cc(F)cc(F)c2)n1` [VQ_36659]: in series [1], the “Toxicity % Inhibition at 50 μM (2 doses)” value stood at 21.9% and the “Toxicity % Inhibition at 100 μM (1 dose)” value is 13.0%. In series [2], the IC50 is 0.3 µM. In series [3], the IC50 was 0.04 µM.

One may read the IC50 as the concentration needed to halve the response being measured.
